In patent publication US9999655B2, “Use of MKS inhibitor peptide-containing compositions for treating non-small cell lung cancer with same” (Moerae Matrix, Inc., priority 2015, dated 2018):
Where no end group is shown, it is not given here.

What was measured:
266 human kinases = assay type: biochemical; details: peptide at 100 μM, 266 human kinases
Description: (§1) Every kinase activity measurement was conducted in duplicate.
(§2) IC50 (half maximal inhibitory concentrations) value for the MK2 inhibitor peptides identified below was determined using Millipore's IC50 Profiler Express service. […] Specifically, in these assays, a positively charged substrate is phosphorylated with a radiolabeled phosphate group from an ATP if the kinase is not inhibited by an inhibitor peptide. The positively charged substrate then is attracted to a negatively charged filter membrane, quantified with a scintillation counter, and compared to a 100% activity control.

[1] = molecular target: (Homo sapiens, UniProt Q15746); assay type: biochemical; details: MLCK(h); peptide 100 μM
Sequence of (Homo sapiens, UniProt Q15746) (Q15746 whole entry): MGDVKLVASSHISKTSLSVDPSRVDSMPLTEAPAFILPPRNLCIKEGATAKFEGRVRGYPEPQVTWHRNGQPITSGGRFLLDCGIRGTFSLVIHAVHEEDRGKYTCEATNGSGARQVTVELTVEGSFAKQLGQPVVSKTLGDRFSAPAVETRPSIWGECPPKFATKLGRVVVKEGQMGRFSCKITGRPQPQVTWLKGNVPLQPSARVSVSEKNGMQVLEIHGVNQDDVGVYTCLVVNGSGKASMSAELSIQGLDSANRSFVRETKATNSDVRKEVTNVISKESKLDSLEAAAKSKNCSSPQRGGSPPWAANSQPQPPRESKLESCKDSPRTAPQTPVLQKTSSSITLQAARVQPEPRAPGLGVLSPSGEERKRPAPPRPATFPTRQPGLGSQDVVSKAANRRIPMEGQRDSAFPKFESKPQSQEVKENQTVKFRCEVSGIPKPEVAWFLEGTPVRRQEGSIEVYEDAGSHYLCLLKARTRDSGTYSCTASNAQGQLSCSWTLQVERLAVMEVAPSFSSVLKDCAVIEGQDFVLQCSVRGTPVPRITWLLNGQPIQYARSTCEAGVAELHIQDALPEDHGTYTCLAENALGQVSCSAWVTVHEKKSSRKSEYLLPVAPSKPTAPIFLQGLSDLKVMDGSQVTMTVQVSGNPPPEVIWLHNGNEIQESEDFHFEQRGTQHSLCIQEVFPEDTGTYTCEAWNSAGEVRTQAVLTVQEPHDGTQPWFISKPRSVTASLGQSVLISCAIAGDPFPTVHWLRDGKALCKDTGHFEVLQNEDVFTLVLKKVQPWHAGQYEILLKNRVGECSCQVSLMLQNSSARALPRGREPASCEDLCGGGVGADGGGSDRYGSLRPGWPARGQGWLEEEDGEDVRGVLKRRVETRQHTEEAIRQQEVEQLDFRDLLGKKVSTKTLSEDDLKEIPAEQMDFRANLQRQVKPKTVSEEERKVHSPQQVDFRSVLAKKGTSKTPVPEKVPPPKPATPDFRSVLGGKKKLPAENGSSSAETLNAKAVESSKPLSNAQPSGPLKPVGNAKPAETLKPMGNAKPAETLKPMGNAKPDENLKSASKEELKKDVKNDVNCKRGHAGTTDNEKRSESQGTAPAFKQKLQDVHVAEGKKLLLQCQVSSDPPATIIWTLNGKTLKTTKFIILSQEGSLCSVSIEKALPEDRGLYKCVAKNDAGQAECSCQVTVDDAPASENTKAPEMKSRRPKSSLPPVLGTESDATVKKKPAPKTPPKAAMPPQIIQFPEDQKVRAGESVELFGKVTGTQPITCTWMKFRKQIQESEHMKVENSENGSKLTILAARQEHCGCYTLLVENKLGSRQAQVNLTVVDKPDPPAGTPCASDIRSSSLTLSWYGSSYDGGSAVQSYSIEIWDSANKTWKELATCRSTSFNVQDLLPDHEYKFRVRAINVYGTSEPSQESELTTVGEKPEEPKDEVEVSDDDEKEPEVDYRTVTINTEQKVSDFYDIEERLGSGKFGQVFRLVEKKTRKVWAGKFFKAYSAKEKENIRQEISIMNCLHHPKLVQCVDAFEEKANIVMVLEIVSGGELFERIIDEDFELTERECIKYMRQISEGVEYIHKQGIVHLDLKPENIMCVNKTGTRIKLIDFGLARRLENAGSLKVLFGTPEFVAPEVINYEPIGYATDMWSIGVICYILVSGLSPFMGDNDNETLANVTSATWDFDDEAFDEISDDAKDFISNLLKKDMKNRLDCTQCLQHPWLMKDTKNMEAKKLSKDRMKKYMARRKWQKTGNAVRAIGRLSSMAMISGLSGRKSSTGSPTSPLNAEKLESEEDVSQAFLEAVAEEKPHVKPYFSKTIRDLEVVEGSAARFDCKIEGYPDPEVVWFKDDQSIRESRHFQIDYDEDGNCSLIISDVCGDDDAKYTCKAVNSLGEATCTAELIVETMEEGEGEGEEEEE
Description: as §1, §2

[2] = molecular target: Calcium/Calmodulin-Dependent Protein Kinase I (CaMKI) (Homo sapiens, UniProt Q14012); assay: biochemical; details: read-out: inhibition of kinase activity of CaMKI
Sequence of Calcium/Calmodulin-Dependent Protein Kinase I (CaMKI) (Q14012 whole entry): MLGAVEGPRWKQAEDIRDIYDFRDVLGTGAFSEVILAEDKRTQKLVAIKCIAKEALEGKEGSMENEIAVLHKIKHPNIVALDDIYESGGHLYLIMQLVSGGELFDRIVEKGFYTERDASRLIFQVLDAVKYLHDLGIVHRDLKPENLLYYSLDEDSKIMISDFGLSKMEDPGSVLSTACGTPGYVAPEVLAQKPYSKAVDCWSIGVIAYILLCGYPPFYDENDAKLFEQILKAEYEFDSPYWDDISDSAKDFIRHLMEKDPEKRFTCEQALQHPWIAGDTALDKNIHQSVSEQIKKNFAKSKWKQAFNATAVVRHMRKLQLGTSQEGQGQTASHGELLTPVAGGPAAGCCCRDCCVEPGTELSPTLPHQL
Description: as §1, §2

[3] = molecular target: Ca2+/calmodulin-dependent protein kinase II (CaMKII); details: cited from earlier work
advanced NSCLC = details: patients with advanced NSCLC; P=0.04; cited from earlier work

Substance	off-target kinase inhibition (specificity) (266 human kinases)	further results
FAKLAARLYRKALARQLGVAA [MMI-0300]	very limited off-target kinase inhibition	–
HRRIKAWLKKIKALARQLGVAA (Mammalian) [MMI-0500]	very limited off-target kinase inhibition	–
KAFAKLAARLYRKALARQLGVAA [MMI-0400]	very limited off-target kinase inhibition	–
YARAAARQARAKALARQLGVAA [MMI-0100]	–	% activity [1]: 85%; inhibition at 100 µM [2]: > 65%
YARAAARQARAKALNRQLGVA (Mammalian) [MMI-0200]	very limited off-target kinase inhibition	–
autocamtide-2 related inhibitory peptide [AIP]	–	IC50 [3]: 0.1 µM
cisplatin/vinorelbine	–	overall survival (advanced NSCLC): 10.1 months
